Assay results as given in patent US20230183640A1, “METABOLIC INHIBITORS WITH EFFICACY FOR INHIBITING SULFIDE PRODUCTION IN HARSH ENVIRONMENTS” (MC (US) 3 LLC, priority 2020, published 2023).

Tests used:
Assay in all cases: Log (Growth) efficacy in aerobic conditions, non-SRB bacteria
Type in all cases: cell-based
[1] = tested on: Pseudomonas aeruginosa 15442
Procedure: (§1) 24-hour cultures were made of ATCC Escherichia coli 8739, Pseudomonas aeruginosa 15442, Enterobacter aerogenes 13048, and Klebsiella pneumoniae 13883. The cultures were prepared by taking a loop of a pure bacterial colony and inoculating 10 mL of TSB. These were grown for 24 hours at 30° C.
(§2) Following the 24-hour incubation, 600 microliters (μL) were taken from each culture and optical density (OD) was measured using a Thermofisher Spectronic 200 Spectrophotometer at 600 nm. Each culture was diluted to 0.05 OD600 in fresh Phosphate Buffered Saline (PBS). Using these cultures, two deep well plates were prepared. Edge wells were not used due to their inherent variability and evaporation of the media. Each of the components were added at their respective concentrations for a final volume of […] per well. In Table 8, the concentrations of the compound C1 used for the experiments are listed. Each experiment was done with at least three replicates for different treatments and non-treatment controls. Plates were then sealed with a titer-top and incubated in an incubator at 30° C.
(§3) Enumerations were done at each time point, which included 0 hour, 1 hour, 4 hours and 24 hours. Enumeration plates were made to determine the log growth in each dosed sample. For this process, enumeration plates were prepared by adding 180 μL fresh TSB. 20 μL was taken from each well of the challenge plates and transferred to the enumeration plates using a 20-200 μL multichannel pipette. Enumeration plates were mixed three times using the multichannel pipette and serial diluted down the plate tenfold (20 μL into 180 μL). This serial dilution process was repeated for all challenge plate rows giving a total of 6 enumeration plates. These enumeration plates were read after 24-hours and by counting the number of turbid wells in a row.

[2] = tested on: Escherichia coli 8739
Procedure: as §1, §2, §3

[3] = tested on: Klebsiella pneumoniae 13883
Procedure: as §1, §2, §3

[4] = tested on: Enterobacter aerogenes 13048
Procedure: as §1, §2, §3

Measured: Log (Growth)

O=C(CN1C(=O)c2cccc3cccc(c23)C1=O)NO [C1]
7.667: [1]; 0 hours, 12.5 PPM | [1]; 0 hours, 50 PPM | [1]; 0 hours, 200 PPM | [1]; 1 hour, 25 PPM | [1]; 4 hours, 100 PPM | [1]; 24 hours, 50 PPM | [1]; 24 hours, 200 PPM | [3]; 0 hours, 6.25 PPM | [3]; 4 hours, 6.25 PPM | [4]; 0 hours, 6.25 PPM | [4]; 0 hours, 50 PPM | [4]; 0 hours, 200 PPM | [4]; 1 hour, 6.25 PPM | [4]; 4 hours, 6.25 PPM | [4]; 4 hours, 12.5 PPM | [4]; 4 hours, 25 PPM
8.000: [1]; 0 hours, 100 PPM | [1]; 1 hour, 12.5 PPM | [1]; 1 hour, 100 PPM | [1]; 4 hours, 12.5 PPM | [1]; 24 hours, 100 PPM | [2]; 1 hour, 12.5 PPM | [3]; 1 hour, 12.5 PPM | [3]; 1 hour, 200 PPM | [4]; 0 hours, 12.5 PPM | [4]; 1 hour, 12.5 PPM | [4]; 1 hour, 200 PPM | [4]; 4 hours, 100 PPM
7.000: [1]; 1 hour, 6.25 PPM | [1]; 1 hour, 200 PPM | [1]; 4 hours, 6.25 PPM | [1]; 4 hours, 25 PPM | [1]; 4 hours, 50 PPM | [1]; 4 hours, 200 PPM | [1]; 24 hours, 12.5 PPM | [2]; 0 hours, 6.25 PPM | [2]; 0 hours, 25 PPM | [2]; 0 hours, 100 PPM | [2]; 0 hours, 200 PPM | [2]; 1 hour, 6.25 PPM | [2]; 4 hours, 6.25 PPM | [2]; 4 hours, 25 PPM | [2]; 4 hours, 100 PPM | [2]; 24 hours, 50 PPM | [2]; 24 hours, 200 PPM | [3]; 4 hours, 100 PPM | [3]; 4 hours, 200 PPM | [3]; 24 hours, 100 PPM | [3]; 24 hours, 200 PPM | [4]; 0 hours, 100 PPM | [4]; 1 hour, 50 PPM | [4]; 4 hours, 200 PPM | [4]; 24 hours, 25 PPM | [4]; 24 hours, 100 PPM
6.000: [3]; 1 hour, 50 PPM | [3]; 24 hours, 25 PPM | [3]; 24 hours, 50 PPM
7.333: [1]; 0 hours, 6.25 PPM | [1]; 0 hours, 25 PPM | [1]; 1 hour, 50 PPM | [1]; 24 hours, 6.25 PPM | [1]; 24 hours, 25 PPM | [2]; 0 hours, 50 PPM | [2]; 1 hour, 25 PPM | [2]; 4 hours, 12.5 PPM | [2]; 24 hours, 12.5 PPM | [3]; 1 hour, 100 PPM | [3]; 24 hours, 6.25 PPM | [3]; 24 hours, 12.5 PPM | [4]; 0 hours, 25 PPM | [4]; 1 hour, 25 PPM | [4]; 1 hour, 100 PPM | [4]; 4 hours, 50 PPM | [4]; 24 hours, 12.5 PPM | [4]; 24 hours, 200 PPM
6.667: [2]; 0 hours, 12.5 PPM | [2]; 4 hours, 50 PPM | [2]; 4 hours, 200 PPM | [2]; 24 hours, 25 PPM | [2]; 24 hours, 100 PPM | [3]; 0 hours, 25 PPM | [3]; 0 hours, 50 PPM | [3]; 0 hours, 100 PPM | [3]; 4 hours, 12.5 PPM | [3]; 4 hours, 25 PPM | [3]; 4 hours, 50 PPM | [4]; 24 hours, 6.25 PPM | [4]; 24 hours, 50 PPM
6.333: [2]; 1 hour, 50 PPM | [2]; 1 hour, 100 PPM | [2]; 1 hour, 200 PPM | [2]; 24 hours, 6.25 PPM | [3]; 0 hours, 12.5 PPM | [3]; 0 hours, 200 PPM | [3]; 1 hour, 6.25 PPM | [3]; 1 hour, 25 PPM
